Experimental data reported in patent US12491452B2, “Extraction method and composition obtained therefrom” (NATURALIA INGREDIENTS S.R.L., priority 2018, dated 2025).
Read-outs that look alike come from different tables or passages of the source.

Tests used:
[1] = cited from earlier work
[2] = cited from earlier work; remark: listed apart in the source
[3] = Stability of CBDA and CBD in inclusion complexes of Eletta Campana CS inflorescence and HP-β-CD in water, HPLC-UV; assay type: physicochemical; settings: for cannabinoid concentration: HP-β-CD aqueous extract
Experimental: The official method reported in the German Pharmacopoeia of Cannabis Flos (https://www.MonographCannabisFlos.pdf) comprises three extraction and filtering cycles of 500 mg of inflorescence with 20, 12.5 and 12.5 mL of ethanol 96% respectively. The ethanol liquid phase was brought to a volume of 50 mL in a volumetric flask with clean 96% ethanol. Said extract was filtered on a regenerated cellulose filter with pore diameter 0.45 μm. A 1 mL portion was diluted with 9 mL of 96% ethanol for chromatographic analysis. For each cannabinoid a calibration curve was constructed for the quantification thereof within the extracts and in the aqueous formulations of the inclusion complexes with the inflorescence. The calibration curve was constructed with certified standards (Cerilliant Cannabinoid Reference Standards, Cerilliant Corporation, Texas, USA) in a concentration range of 0.25-1.00 μg/mL. The titrations were performed following the method published by Citti et al. [Citti et al., Journal of Pharmaceutical and Biomedical Analysis 2016, 128, 201-209] with the use of high-performance liquid chromatography coupled with a UV detector (HPLC-UV).
After filtering, both the solutions were then transferred to an amber-colored closed container. One container was kept at ambient temperature (25° C.) in the dark and the other in the refrigerator at 8° C. The concentration of the cannabinoids, in the particular example of CBDA and CBD, was measured at different times to verify the stability thereof, analyzing a portion by HPLC-UV. […] The percentage CBDA concentration difference with reference to time 0 is indicated in brackets.

Compound | Solubility in pure water (mg/ml) at approx. 25° C. [1] | cannabinoid concentration ([3]; 8° C., 0 days) | cannabinoid concentration ([3]; 8° C., 14 days) | cannabinoid concentration ([3]; 8° C., 45 days) | cannabinoid concentration ([3]; 8° C., 60 days) | cannabinoid concentration ([3]; 8° C., 100 days) | cannabinoid concentration ([3]; 25° C. in the dark, 0 days) | cannabinoid concentration ([3]; 25° C. in the dark, 14 days) | cannabinoid concentration ([3]; 25° C. in the dark, 45 days) | cannabinoid concentration ([3]; 25° C. in the dark, 60 days) | cannabinoid concentration ([3]; 25° C. in the dark, 100 days) | other results
Randomly methylated β-Cyclodextrin | >500 mg/mL |  |  |  |  |  |  |  |  |  |  | 
Sodium salt of β-CD sulfobutyl ether | >500 mg/mL |  |  |  |  |  |  |  |  |  |  | 
2-Hydroxypropyl-γ-cyclodextrin | >500 mg/mL |  |  |  |  |  |  |  |  |  |  | 
C=C(C)[C@@H]1CCC(C)=C[C@H]1c1c(O)cc(CCCCC)c(C(=O)O)c1O [CBDA, 2,4-Dihydroxy-3-[(1R,6R)-3-methyl-6-(1-methylethenyl)-2-cyclohexen-1-yl]-6-pentylbenzoic acid] |  | 6.81 µg/mL | 6.94 µg/mL | 6.91 µg/mL | 6.86 µg/mL | 6.91 µg/mL | 6.45 µg/mL | 5.81 µg/mL | 4.47 µg/mL | 3.38 µg/mL | 3.21 µg/mL | time beyond which stability in water is not guaranteed ([2]; infusion without CD, both at 25° C. and at 4° C.): ≤ 14 days; stability of the formulation (in words) [3]: loss (albeit very slow; percentage CBDA concentration difference with reference to time 0 ([3]; 8° C., 14 days): +1.8%; percentage CBDA concentration difference with reference to time 0 ([3]; 8° C., 45 days): +1.4%; percentage CBDA concentration difference with reference to time 0 ([3]; 8° C., 60 days): +0.6%; percentage CBDA concentration difference with reference to time 0 ([3]; 8° C., 100 days): +1.4%; percentage CBDA concentration difference with reference to time 0 ([3]; 25° C., 14 days): −9.9%; percentage CBDA concentration difference with reference to time 0 ([3]; 25° C., 45 days): −30.7%; percentage CBDA concentration difference with reference to time 0 ([3]; 25° C., 60 days): −47.6%; percentage CBDA concentration difference with reference to time 0 ([3]; 25° C., 100 days): −50.1%
C=C(C)[C@@H]1CCC(C)=C[C@H]1c1c(O)cc(CCCCC)cc1O [CBD, 2-[(1R,6R)-3-methyl-6-(prop-1-en-2-yl)cyclohex-2-enyl]-5-pentylbenzene-1,3-diol, reference compound] |  | 0.16 µg/mL | 0.12 µg/mL | 0.17 µg/mL | 0.14 µg/mL | 0.17 µg/mL | 0.14 µg/mL | 0.56 µg/mL | 0.78 µg/mL | 1.10 µg/mL | 2.93 µg/mL | drop of concentration in water ([2]; infusion without CD, 25° C., period of 7 days): 60%; drop of concentration in water ([2]; tisane without CD kept at 4° C., 7 days): 50%; stability of the formulation (in words) ([3]; formulation kept at 8° C., 100 days): remain surprisingly stable
2-hydroxypropyl-β-cyclodextrin | >600 mg/mL |  |  |  |  |  |  |  |  |  |  | 
